This note sets out measurements from ChEMBL document CHEMBL3232755, “Optimization of plasmepsin inhibitor by focusing on similar structural feature with chloroquine to avoid drug-resistant mechanism of Plasmodium falciparum” (Bioorg Med Chem Lett, 2014).

The test system of assay [1] is Plasmodium falciparum. Description: Antimalarial activity against chloroquine, mefloquine and pyrimethamine-resistant Plasmodium falciparum TM91C235 by SYBR green I staining-based fluorescence assay. The class given is functional, organism-based.
Assay [2] relates to Plasmodium falciparum. Description: Antimalarial activity against chloroquine-sensitive Plasmodium falciparum D6 by SYBR green I staining-based fluorescence assay. It is filed as functional, organism-based.
The target in the next assay is Plasmepsin II (Plasmodium falciparum, UniProt P46925). Description: Inhibition of Plasmodium falciparum plasmepsin 2.
The subject of assay [3] is Plasmodium falciparum. The experiment in a line: Resistance index, ratio of EC50 for chloroquine, mefloquine and pyrimethamine-resistant Plasmodium falciparum TM91C235 to EC50 for chloroquine-sensitive Plasmodium falciparum D6. The class given is functional.
Assay [4] deals with Plasmodium falciparum. Description: Antimalarial activity against chloroquine and pyrimethamine-resistant mefloquine-sensitive Plasmodium falciparum W2 by SYBR green I staining-based fluorescence assay. It is filed as functional, organism-based.
The subject of assay [5] is Plasmodium falciparum. The experiment in a line: Resistance index, ratio of EC50 for chloroquine and pyrimethamine-resistant mefloquine-sensitive Plasmodium falciparum W2 to EC50 for chloroquine-sensitive Plasmodium falciparum D6. The class given is functional.

The structures appear in SMILES notation.

Sequence of Plasmepsin II (P46925 whole entry): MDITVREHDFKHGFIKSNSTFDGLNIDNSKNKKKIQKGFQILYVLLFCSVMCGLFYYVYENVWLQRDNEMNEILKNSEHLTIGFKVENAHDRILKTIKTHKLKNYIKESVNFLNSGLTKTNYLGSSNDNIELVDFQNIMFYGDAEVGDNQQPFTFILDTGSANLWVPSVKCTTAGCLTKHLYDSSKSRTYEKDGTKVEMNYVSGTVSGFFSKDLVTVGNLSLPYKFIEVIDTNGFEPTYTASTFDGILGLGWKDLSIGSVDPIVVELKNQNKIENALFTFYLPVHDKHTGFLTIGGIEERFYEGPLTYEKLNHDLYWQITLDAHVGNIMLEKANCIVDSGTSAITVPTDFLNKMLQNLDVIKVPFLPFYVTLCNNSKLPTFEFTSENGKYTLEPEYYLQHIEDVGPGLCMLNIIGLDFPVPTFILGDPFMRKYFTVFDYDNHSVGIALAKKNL

Take `Cc1cc(NC(=O)CCCN)cc(C)c1OCC(=O)N[C@@H](Cc1ccccc1)[C@H](O)C(=O)N1CSC(C)(C)[C@H]1C(=O)N[C@H]1c2ccccc2C[C@H]1O`: the EC50 (as a rule, the concentration at which the effect is half-maximal) in the assay with Plasmodium falciparum [1] was determined as 1300 nM; in the assay with Plasmodium falciparum [2] it was 3200 nM. On Plasmepsin II, the Ki (commonly the equilibrium dissociation constant of an inhibitor or competing ligand from its target) worked out at 1.1 nM. Further, the “Ratio EC50” value in the assay with Plasmodium falciparum [3] was determined as 0.41.
Turning to `Cc1cc(NC(=O)CCN)cc(C)c1OCC(=O)N[C@@H](Cc1ccccc1)[C@H](O)C(=O)N1CSC(C)(C)[C@H]1C(=O)N[C@H]1c2ccccc2C[C@H]1O`, the EC50 in the assay with Plasmodium falciparum [1] turned out to be 730 nM; in the assay on Plasmodium falciparum [2], 260 nM. The molecule further returned a Ki on Plasmepsin II of 2.3 nM. Moreover, the “Ratio EC50” value in the assay on Plasmodium falciparum [3] is 2.8.
With `Cc1cc(NC(=O)CN2CCOCC2)cc(C)c1OCC(=O)N[C@@H](Cc1ccccc1)[C@H](O)C(=O)N1CSC(C)(C)[C@H]1C(=O)N[C@H]1c2ccccc2C[C@H]1O`, at Plasmepsin II, the affinity, expressed as Ki, was 4.3 nM.
As to `Cc1cc(NC(=O)CCCCN)cc(C)c1OCC(=O)N[C@@H](Cc1ccccc1)[C@H](O)C(=O)N1CSC(C)(C)[C@H]1C(=O)N[C@H]1c2ccccc2C[C@H]1O`, the EC50 was 620 nM in the assay on Plasmodium falciparum [1] and 1800 nM in the assay on Plasmodium falciparum [2]. At Plasmepsin II, the Ki amounted to 1 nM. For the same molecule, in the assay on Plasmodium falciparum [3], the “Ratio EC50” value came to 0.34.
Molecule `Cc1cc(NCc2c[nH]cn2)cc(C)c1OCC(=O)N[C@@H](Cc1ccccc1)[C@H](O)C(=O)N1CSC(C)(C)[C@H]1C(=O)N[C@H]1c2ccccc2C[C@H]1O` gave a Ki on Plasmepsin II of 4.8 nM. Besides, in the assay on Plasmodium falciparum [3], the “Ratio EC50” value was “<=2”.
Consider `Cc1cc(NC(=O)CCCCCN)cc(C)c1OCC(=O)N[C@@H](Cc1ccccc1)[C@H](O)C(=O)N1CSC(C)(C)[C@H]1C(=O)N[C@H]1c2ccccc2C[C@H]1O`, for which the EC50 stood at 720 nM in the assay on Plasmodium falciparum [1] and 2600 nM in the assay with Plasmodium falciparum [2]. The same molecule had a Ki on Plasmepsin II of 5.7 nM. Besides, the “Ratio EC50” value in the assay on Plasmodium falciparum [3] turned out to be 0.28.
Take `Cc1cc(NCCCl)cc(C)c1OCC(=O)N[C@@H](Cc1ccccc1)[C@H](O)C(=O)N1CSC(C)(C)[C@H]1C(=O)N[C@H]1c2ccccc2C[C@H]1O`: the inhibition constant (Ki) at Plasmepsin II turned out to be 5.5 nM. The “Ratio EC50” value in the assay on Plasmodium falciparum [3] is “<=2”.
With `Cc1cc(NC(=O)CN)cc(C)c1OCC(=O)N[C@@H](Cc1ccccc1)[C@H](O)C(=O)N1CSC(C)(C)[C@H]1C(=O)N[C@H]1c2ccccc2C[C@H]1O`, the Ki at Plasmepsin II amounted to 1.2 nM.
Take `CNCCN(C)c1cc(C)c(OCC(=O)N[C@@H](Cc2ccccc2)[C@H](O)C(=O)N2CSC(C)(C)[C@H]2C(=O)N[C@H]2c3ccccc3C[C@H]2O)c(C)c1`: the EC50 in the assay on Plasmodium falciparum [1] was 860 nM. For the same molecule, the “Ratio EC50” value in the assay on Plasmodium falciparum [3] is 4.5.
Molecule `Cc1cc(NCc2ccnc3ccccc23)cc(C)c1OCC(=O)N[C@@H](Cc1ccccc1)[C@H](O)C(=O)N1CSC(C)(C)[C@H]1C(=O)N[C@H]1c2ccccc2C[C@H]1O` gave an EC50 with Plasmodium falciparum [2] of 500 nM. For the same molecule, the inhibition constant (Ki) at Plasmepsin II was determined as 1.7 nM. For the same molecule, the “Ratio EC50” value in the assay with Plasmodium falciparum [3] is reported as “<=2”.
Consider `COC(CNc1cc(C)c(OCC(=O)N[C@@H](Cc2ccccc2)[C@H](O)C(=O)N2CSC(C)(C)[C@H]2C(=O)N[C@H]2c3ccccc3C[C@H]2O)c(C)c1)OC`, for which the EC50 in the assay on Plasmodium falciparum [2] amounted to 850 nM. On Plasmepsin II, the affinity corresponds to a Ki of 11 nM. The “Ratio EC50” value in the assay with Plasmodium falciparum [3] is recorded as “<=2”.
For `CCOP(=O)(CCNc1cc(C)c(OCC(=O)N[C@@H](Cc2ccccc2)[C@H](O)C(=O)N2CSC(C)(C)[C@H]2C(=O)N[C@H]2c3ccccc3C[C@H]2O)c(C)c1)OCC`, the EC50 in the assay on Plasmodium falciparum [2] was determined as 600 nM. For the same molecule, the Ki at Plasmepsin II was found to be 22 nM. Besides, in the assay on Plasmodium falciparum [3], the “Ratio EC50” value was “<=2”.
Molecule `Cc1cc(NCc2ccccn2)cc(C)c1OCC(=O)N[C@@H](Cc1ccccc1)[C@H](O)C(=O)N1CSC(C)(C)[C@H]1C(=O)N[C@H]1c2ccccc2C[C@H]1O` yielded an EC50 in the assay with Plasmodium falciparum [4] of 730 nM. Further, the “Ratio EC50” value in the assay on Plasmodium falciparum [5] is given as 1.3.
For the molecule `CCNCCNc1cc(C)c(OCC(=O)N[C@@H](Cc2ccccc2)[C@H](O)C(=O)N2CSC(C)(C)[C@H]2C(=O)N[C@H]2c3ccccc3C[C@H]2O)c(C)c1`, the EC50 in the assay with Plasmodium falciparum [1] amounted to 1900 nM. Also, the “Ratio EC50” value in the assay on Plasmodium falciparum [3] was 8.6.
Turning to `Cc1cccc(CNc2cc(C)c(OCC(=O)N[C@@H](Cc3ccccc3)[C@H](O)C(=O)N3CSC(C)(C)[C@H]3C(=O)N[C@H]3c4ccccc4C[C@H]3O)c(C)c2)n1`, the Ki at Plasmepsin II is 4.4 nM. Moreover, in the assay with Plasmodium falciparum [3], the “Ratio EC50” value is “<=2”.
